Laboratory results taken from PMC2364952, “The Anti-Inflammatory Activity of Boron Derivatives in Rodents” (Metal-Based Drugs, 1995).

Legend:
[1] = tested on: tail flick response to heat; assay: Hot plate tail flick screen; type: in vivo, CF1 male mice; conditions: for Mice Tail Flick: 8 mg/kg I.P., hot plate, Table 2; for tail flick assay time / blocking central pain compared with morphine: mice; for tail flick assay time: 8 mg/kg; for blocking central pain compared with morphine: tail flick
[2] = tested on: carrageenan-induced inflammation of paw; assay: Carrageenan-induced paw edema, rats; type: in vivo, Sprague Dawley male rats; conditions: for reduction in induced edema in rats: 8 mg/kg x 2; for Rat Inflammatory: 8 mg/kg x 2, I.P., Table 2;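 for Rat Inflammatory: paw weight increase as percent of control rats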
[3] = tested on: acetic acid induced stretch reflex; assay: Local analgesic screen (acetic acid writhing); type: in vivo, CF1 mice; conditions: for Mice Writhing Reflex: 8 mg/kg I.P., Table 2; for reduction of the reflex action: mice, acetic acid induced local pain, 8 mg/kg
[4] = target: acid phosphatase; assay: Acid phosphatase activity, mouse macrophages; type: cell-based, mouse (J774 macrophages); conditions: Table 3; read-out: IC50 Acid Phosphatase, Mouse Macrophage
[5] = tested on: cathepsin; assay: Cathepsin activity, mouse macrophages; type: cell-based, mouse (J774 macrophages); conditions: Table 3; read-out: IC50 Cathepsin, Mouse Macrophage
[6] = target: aryl sulphatase; assay: Aryl sulfatase activity, mouse macrophages; type: cell-based, mouse (J774 macrophages); conditions: Table 3; read-out: IC50 Aryl Sulfatase, Mouse Macrophage
[7] = tested on: trypsin; assay: Trypsin proteolytic activity, mouse macrophages; type: cell-based, mouse (J774 macrophages); conditions: Table 5; read-out: IC50 Trypsin, Mouse Macrophage
[8] = target: elastase; assay: Elastase activity, mouse macrophages; type: cell-based, mouse (J774 macrophages); conditions: Table 5; read-out: IC50 Elastase, Mouse Macrophage
[9] = target: prostaglandin cyclooxygenase; assay: Prostaglandin cyclooxygenase activity, macrophages; type: cell-based, mouse (J774 macrophages); conditions: Table 7
[10] = tested on: adjuvant (M. butyricum) arthritis; assay: Chronic adjuvant arthritic screen; type: in vivo; conditions: rats; for Rat Chronic Arthritis: 8 mg/kg/day I.P., Day 3 to Day 21, Table 2
[11] = tested on: carrageenan-induced inflammation of hind foot; assay: Carrageenan-induced foot edema, mice; type: in vivo, CF1 male mice; conditions: for reduction of induced edema / anti-inflammatory activity in mouse edema screen: mice; for reduction of induced edema: 8 mg/kg x 2, I.P., carrageenan; for anti-inflammatory activity in mouse edema screen: 8 mg/kg x 2; for inhibition of induced inflammation: standards at their therapeutic dose (indomethacin 8 mg/kg x 2, pentoxifylline and phenylbutazone 50 mg/kg x 2)
[12] = tested on: carrageenan-induced pleural fluid; assay: Anti-pleurisy screen; type: in vivo, Sprague Dawley male rats; conditions: for pleurisy edema in rats: 8 mg/kg; for Rat Pleurisy: rats, 8 mg/kg I.P., 1 h before and 3 h after carrageenan, Table 2;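 for Rat Pleurisy: Pleural fluid volume as percent of control rats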

| Structure (SMILES) | Rat Inflammatory [2] | Mice Writhing Reflex [3] | reduction of the reflex action [3] | IC50 [4] [µM] | IC50 [5] [µM] | IC50 [7] [µM] | IC50 [8] [µM] | reduction of induced edema [11] | also measured |
| --- | --- | --- | --- | --- | --- | --- | --- | --- | --- |
| CN1CC[C@]23c4c5ccc(O)c4O[C@H]2[C@@H](O)C=C[C@H]3[C@H]1C5 [Morphine, morphine, reference compound] | – | – | – | – | – | – | – | – | Mice Tail Flick [1]: 213 % of control |
| CCNC(=O)[BH2-][NH2+]C [Compound 23] | 41 % of control | 27 % of control | at least 45% | 1.12 | 3.95 | 2.03 | 3.29 | – | reduction in induced edema in rats [2]: at least 40%; Mice Tail Flick [1]: 81 % of control; IC50 [6]: 9.27 µM; IC50 [9]: 5.19 µM |
| C[N+](C)([BH2-]C(=O)O)CC[N+](C)(C)[BH2-]C(=O)O [Compound 7] | – | 55 % of control | at least 45% | 3.32 | 8.37 | 2.33 | 2.76 | – | reduction of pannus ([10]; 8 mg/kg/day): greater than 75%; Rat Chronic Arthritis [10]: 24 % of control; IC50 [9]: 1.85 µM |
| CCCCNC(=O)[BH2-][N+](C)(C)C [Compound 27] | – | – | at least 45% | – | – | – | – | – | – |
| CC(C)OP(=O)(C[NH+](C)[BH2-]C#N)OC(C)C (stereo not drawn) [Compound 67] | – | – | – | – | – | – | – | at least 40% | – |
| CCNC(=O)[BH2-][N+](C)(C)C [Compound 25] | – | 89 % of control | – | – | – | – | – | – | – |
| CC(C)OP(=O)(C[NH+](C)[BH2-]C(=O)O)OC(C)C (stereo not drawn) [Compound 71] | – | – | – | – | – | – | – | at least 40% | – |
| CCCCCCCCCCCCCCCCCC[N+](C)(C)[BH2-]C(=O)O [Compound 9] | 72 % of control | 14 % of control | 80% | 5.34 | 5.09 | 2.07 | 6.29 | – | Mice Tail Flick [1]: 231 % of control; tail flick assay time [1]: increased; blocking central pain compared with morphine [1]: as effective as morphine; pleurisy edema in rats [12]: reduced significantly; Rat Pleurisy [12]: 37 % of control; IC50 [9]: 2.51 µM |
| CCOC(=O)[BH2-][N+](C)(C)CP(=O)(OCC)OCC [Compound 68] | – | – | – | – | – | – | – | at least 40% | – |
| CC[N+]([BH2-]C#N)(CC)CP(=O)(OC(C)C)OC(C)C [Compound 64] | – | – | – | – | – | – | – | at least 40% | – |
| CCOP(=O)(C[N+](C)(C)[BH2-]C#N)OCC [Compound 66] | – | – | – | – | – | – | – | at least 40% | – |
| Cc1[nH]cc[n+]1[BH2-]C#N [Compound 91] | – | – | – | – | – | – | – | at least 30% | – |
| CCNC(=O)[BH2-][NH+](C)CP(=O)(OCC)OCC (stereo not drawn) [Compound 69] | – | – | – | – | – | – | – | at least 40% | – |
| COC(=O)[BH2-][N+](C)(C)C [Compound 16] | 71 % of control | 2 % of control | 80% | 3.55 | 8.28 | 3.23 | 8.76 | – | anti-inflammatory activity in mouse edema screen [11]: less active; Mice Tail Flick [1]: 180 % of control; tail flick assay time [1]: increased; pleurisy edema in rats [12]: reduced significantly; Rat Pleurisy [12]: 45 % of control; IC50 [6]: 17.6 µM; IC50 [9]: 2.41 µM |
| C[N+](C)(C)[BH2-]C(=O)NO.[H+].c1ccc([B-](c2ccccc2)(c2ccccc2)c2ccccc2)cc1 [Compound 76] | 60 % of control | 45 % of control | at least 45% | 3.96 | 1.69 | 2.06 | 4.83 | at least 40% | Mice Tail Flick [1]: 258 % of control; tail flick assay time [1]: increased; blocking central pain compared with morphine [1]: as effective as morphine; pleurisy edema in rats [12]: reduced significantly; Rat Pleurisy [12]: 50 % of control; IC50 [6]: 1.37 µM; IC50 [9]: 1.61 µM |
| COC(=O)[BH2-][NH+]1CCC(c2ccccc2)CC1 (stereo not drawn) [Compound 87] | – | 89 % of control | – | 2.68 | 3.99 | 2.85 | 6.98 | at least 30% | – |
| CCC[NH+]([BH2-]C(=O)O)CCC [Compound 6] | 55 % of control | 19 % of control | – | – | – | – | – | – | reduction in induced edema in rats [2]: at least 40% |
| C[N+]1([BH2-]C(=O)O)CCOCC1 [Compound 84] | – | – | – | – | – | – | – | at least 30% | – |

| Structure (SMILES) | Rat Inflammatory [2] | Mice Writhing Reflex [3] | reduction of the reflex action [3] | IC50 [4] [µM] | IC50 [5] [µM] | IC50 [7] [µM] | IC50 [8] [µM] | reduction of induced edema [11] | also measured |
| --- | --- | --- | --- | --- | --- | --- | --- | --- | --- |
| CCCC[N+](CCCC)(CCCC)CCCC.CCNC(=O)[BH2-][P+]([O-])(OCC)OCC [Compound 57] | – | – | – | 4.43 | 6.49 | 3.76 | 9.01 | – | IC50 [9]: 3.09 µM |
| O=C(O)[BH2-][n+]1ccccc1 [Compound 11] | 77 % of control | – | – | – | – | – | – | – | – |
| C[NH2+][BH2-]C(=O)NO.[H+].c1ccc([B-](c2ccccc2)(c2ccccc2)c2ccccc2)cc1 [Compound 75] | – | 34 % of control | at least 45% | 6.61 | 4.58 | 2.51 | 7.59 | at least 40% | Mice Tail Flick [1]: 279 % of control; tail flick assay time [1]: increased; blocking central pain compared with morphine [1]: as effective as morphine; IC50 [6]: 1.5 µM; IC50 [9]: 6.61 µM |
| CCCCC1C(=O)N(c2ccccc2)N(c2ccccc2)C1=O [Phenylbutazone, phenylbutazone, reference compound] | 47 % of control | – | – | – | – | – | – | – | inhibition of induced inflammation [11]: 47% |
| COc1ccc2c(c1)c(CC(=O)O)c(C)n2C(=O)c1ccc(Cl)cc1 [Indomethacin, indomethacin, reference compound] | 78 % of control | 43 % of control | – | – | – | – | – | – | inhibition of induced inflammation [11]: 26%; Rat Pleurisy [12]: 12 % of control; Rat Chronic Arthritis [10]: 55 % of control |
| N#C[BH2-][P+](c1ccccc1)(c1ccccc1)c1ccccc1 [Compound 48] | 78 % of control | 50 % of control | at least 45% | – | – | – | – | – | Mice Tail Flick [1]: 134 % of control |
| CC(=O)CCCCn1c(=O)c2c(ncn2C)n(C)c1=O [pentoxifylline, reference compound] | – | – | – | – | – | – | – | – | inhibition of induced inflammation [11]: 30% |
| [BH3-][NH+]1CCOCC1 [Compound 78] | 83 % of control | 15 % of control | 80% | 3.18 | 0.76 | 2.39 | 5.94 | 45% | activity in chronic arthritis screen ([10]; 8 mg/kg/day): significantly active; Rat Chronic Arthritis [10]: 33 % of control; IC50 [9]: 1.47 µM |
| C[NH+](C)[BH2-]C(=O)O [Compound 3] | – | – | – | 4.75 | 6.39 | 3.1 | 2.67 | – | Mice Tail Flick [1]: 156 % of control; tail flick assay time [1]: increased; IC50 [9]: 2.91 µM |
| CCNC(=O)[BH2-][N+](C)(C)CC[N+](C)(C)[BH2-]C(=O)NCC [Compound 30] | – | 34 % of control | – | – | – | – | – | – | – |
| CC[NH2+][BH2-]C(=O)O [Compound 5] | 59 % of control | 1 % of control | 80% | – | – | – | – | – | reduction in induced edema in rats [2]: at least 40%; Mice Tail Flick [1]: 196 % of control; tail flick assay time [1]: increased |
| CCCCCCCCCCCCCCCC[N+](C)(C)[BH2-]C(=O)OCC [Compound 19] | – | – | – | – | – | – | – | – | anti-inflammatory activity in mouse edema screen [11]: less active |
| CCNC(=O)[BH2-][NH+](C)CP(=O)(OC(C)C)OC(C)C (stereo not drawn) [Compound 73] | – | – | – | – | – | – | – | at least 40% | – |
| CC[N+]([BH2-]C#N)(CC)CP(=O)(OC)OC [Compound 62] | – | – | – | – | – | – | – | at least 40% | – |
| C[N+](C)(C)[BH2-]C(=O)O [Compound 4] | 55 % of control | 2 % of control | 80% | – | – | – | – | – | reduction in induced edema in rats [2]: at least 40% |
| CCNC(=O)[BH2-][P+]([O-])(OCC)OCC.[Na+] [Compound 54] | – | – | – | – | – | – | – | at least 40% | – |
| CCCCCCCCCCCCCCCCCC[N+](C)(C)[BH2-]C#N [Compound 36] | – | 61 % of control | at least 45% | 2.68 | 3.69 | 4.34 | 10.3 | – | anti-inflammatory activity in mouse edema screen [11]: good activity; IC50 [9]: 2.23 µM |
